# From the SangsterLogP compilation
# Assay: method code SF-AS, from DOI: 10.1016/s0021-9673(00)82338-9
# Settings: pH 9.0
row,Compound,logD
1,CN1CCN(Cc2ncc([N+](=O)[O-])n2C)CC1,-0.32
2,O=[N+]([O-])c1cnc(C=Cc2ccc3c(c2)OCO3)n1CCO,2.03
3,Cc1ncc([N+](=O)[O-])n1CC(O)Cn1c([N+](=O)[O-])cnc1C,0.31
4,Cn1c([N+](=O)[O-])cnc1C1CC1,1
5,O=[N+]([O-])c1cncn1CCN1CCOCC1,0.07
6,Cc1ncc([N+](=O)[O-])n1CC(=O)N1C=CN(C(=O)Cn2c([N+](=O)[O-])cnc2C)C=C1,-0.7

# The remaining lines, values ahead:
row,logD,Compound
1,-0.03,Cn1c([N+](=O)[O-])cnc1CO
2,-0.38,Cn1c([N+](=O)[O-])cnc1COC(N)=O
3,-0.69,Cn1c([N+](=O)[O-])cnc1C=O
